Experimental data reported in patent EP0041644B1 (priority 1980, dated 1981).
Marks after values point to notes of the source that are not given here.

Columns and labels:
L-1210 Leukemia = L-1210 Leukemia (Table IX); type: in vivo, mice
Experimental: The sodium and ammonium salts of the present invention were tested against transplantable mouse tumors as indicated below.

B16 Melanoma [1] = experiment: B16 Melanoma - Test 3 (sc trocar fragments); type: in vivo, mice; settings: for Effect MST %TC / MST Days: qd 1→9
L1210 Leukemia [2] = experiment: L1210 Leukemia - Test 1 (survival of tumor-bearing mice); type: in vivo; settings: d. 1 only
From the text: This evaluation of the ammonium salt finds the drug to be active against L1210 (ip) leukemia when administered ip one day post-implant of 10^6 L1210 cells (maximum T/C was 164%). […] The vehicle for the ammonium salt was water.

B16 Melanoma [3] = experiment: B16 Melanoma - Test 2 (ip tumor brei); type: in vivo, mice; settings: QD +9
B16 Melanoma [4] = experiment: B16 Melanoma - Test 1 (ip tumor brei); type: in vivo, mice; settings: for Effect MST % T/C / MST Days: QD 1→9, vehicle CMC + H2O
L1210 Leukemia [5] = experiment: L1210 Leukemia - Test 3 (vehicle comparison); type: in vivo, mice; settings: Day 1 only, vehicle CMC + saline
Lewis Lung Carcinoma = Lewis Lung Carcinoma - Test 1 (ip, delayed therapy); type: in vivo, mice

With O=C1[O][Pt]2([NH]CC3(CCCCC3)C[NH]2)[O]C(=O)C1[O-].[Na+] [Example 9, 2-Hydroxymalonato (1,1-diaminomethylcyclohexane)-platinum (II), sodium salt] the “Average Weight Change,g” value (L-1210 Leukemia; 2 mg/kg/inj ip, qd 1→9) was -1.3 g, the “Effect MST % T/C” value (L-1210 Leukemia; 2 mg/kg/inj ip, qd 1→9) was 131 % T/C and the “MST Days” value (L-1210 Leukemia; 2 mg/kg/inj ip, qd 1→9) was 8.5 days. The “Average Weight Change,g” value (L-1210 Leukemia; 4 mg/kg/inj ip, qd 1→9) was -1.2 g, the “Effect MST % T/C” value (L-1210 Leukemia; 4 mg/kg/inj ip, qd 1→9) was 154 % T/C and the “MST Days” value (L-1210 Leukemia; 4 mg/kg/inj ip, qd 1→9) was 10.0 days. The “Average Weight Change,g” value (L-1210 Leukemia; 8 mg/kg/inj ip, qd 1→9) was -1.3 g, the “Effect MST % T/C” value (L-1210 Leukemia; 8 mg/kg/inj ip, qd 1→9) was 238 % T/C and the “MST Days” value (L-1210 Leukemia; 8 mg/kg/inj ip, qd 1→9) was 15.5 days. The “Average Weight Change,g” value (L-1210 Leukemia; 12 mg/kg/inj ip, Day 1) was -1.8 g, the “Effect MST % T/C” value (L-1210 Leukemia; 12 mg/kg/inj ip, Day 1) was 162 % T/C and the “MST Days” value (L-1210 Leukemia; 12 mg/kg/inj ip, Day 1) was 10.5 days. The “Average Weight Change,g” value (L-1210 Leukemia; 12 mg/kg/inj ip, qd 1→9) was -3.0 g, the “Effect MST % T/C” value (L-1210 Leukemia; 12 mg/kg/inj ip, qd 1→9) was 292 % T/C and the “MST Days” value (L-1210 Leukemia; 12 mg/kg/inj ip, qd 1→9) was 19.0 days. The “Average Weight Change,g” value (L-1210 Leukemia; 24 mg/kg/inj ip, Day 1) was -3.7 g, the “Effect MST % T/C” value (L-1210 Leukemia; 24 mg/kg/inj ip, Day 1) was 215 % T/C and the “MST Days” value (L-1210 Leukemia; 24 mg/kg/inj ip, Day 1) was 14.0 days. For the same molecule, the “Average Weight Change,g” value (L-1210 Leukemia; 36 mg/kg/inj ip, Day 1) was -4.3 g, the “Effect MST % T/C” value (L-1210 Leukemia; 36 mg/kg/inj ip, Day 1) was 223 % T/C and the “MST Days” value (L-1210 Leukemia; 36 mg/kg/inj ip, Day 1) was 14.5 days. The “Average Weight Change,g” value (L-1210 Leukemia; 48 mg/kg/inj ip, Day 1) was -3.6 g, the “Effect MST % T/C” value (L-1210 Leukemia; 48 mg/kg/inj ip, Day 1) was 200 % T/C and the “MST Days” value (L-1210 Leukemia; 48 mg/kg/inj ip, Day 1) was 13.0 days. For the same molecule, the “maximum T/C” value (L-1210 Leukemia; qd 1→9 (cis-DDP 2.4, parent 8 and 12, sodium salt 12 mg/kg/injection)) was 292%, the “maximum T/C” value (L-1210 Leukemia; single ip injection at maximum tolerated dose (cis-DDP 8 mg/kg, the two others 36 mg/kg)) was 223% and the “Water-solubility at room temperature” value was ≥ 100 mg/mL.
With [NH2][Pt]1([NH2])[O]C(=O)C(O)C(=O)[O]1 [2-Hydroxymalonato diammine platinum (II), 2-hydroxymalonato diammine platinum (II)] the “Effect MST %TC” value (B16 Melanoma [1]; 8 mg/kg/inj ip) was 131 %TC, the “MST Days” value (B16 Melanoma [1]; 8 mg/kg/inj ip) was 40.0 days and the “Effect MST %TC” value (B16 Melanoma [1]; 12 mg/kg/inj ip) was 115 %TC. The “MST Days” value (B16 Melanoma [1]; 12 mg/kg/inj ip) was 35.0 days, the “Effect MST %TC” value (B16 Melanoma [1]; 16 mg/kg/inj ip) was 48 %TC and the “MST Days” value (B16 Melanoma [1]; 16 mg/kg/inj ip) was 14.5 days. The “Effect MST %TC” value (B16 Melanoma [1]; 24 mg/kg/inj ip) was “TOX”, the “MST Days” value (B16 Melanoma [1]; 24 mg/kg/inj ip) was “TOX” and the T/C (B16 Melanoma [1]; given ip, sc-implanted B16 melanoma) was 131%. For the same molecule, the “Effect MST % T/C” value (L1210 Leukemia [2]; 20 mg/kg/day ip) was 143 % T/C, the “MST Days” value (L1210 Leukemia [2]; 20 mg/kg/day ip) was 10.0 days and the “Effect MST % T/C” value (L1210 Leukemia [2]; 40 mg/kg/day ip) was 143 % T/C. For the same molecule, the “MST Days” value (L1210 Leukemia [2]; 40 mg/kg/day ip) was 10.0 days, the “Effect MST % T/C” value (L1210 Leukemia [2]; 60 mg/kg/day ip) was 157 % T/C and the “MST Days” value (L1210 Leukemia [2]; 60 mg/kg/day ip) was 11.0 days. For the same molecule, the “Effect MST % T/C” value (L1210 Leukemia [2]; 80 mg/kg/day ip) was 171 % T/C, the “MST Days” value (L1210 Leukemia [2]; 80 mg/kg/day ip) was 12.0 days and the “Average Weight Change” value (B16 Melanoma [3]; 2 mg/kg/day ip) was -1.1 g. The “Effect MST % T/C” value (B16 Melanoma [3]; 2 mg/kg/day ip) was 182 % T/C, the “MST Days” value (B16 Melanoma [3]; 2 mg/kg/day ip) was 37.5 days and the “Average Weight Change” value (B16 Melanoma [3]; 4 mg/kg/day ip) was -1.1 g. For the same molecule, the “Effect MST % T/C” value (B16 Melanoma [3]; 4 mg/kg/day ip) was 163 % T/C, the “MST Days” value (B16 Melanoma [3]; 4 mg/kg/day ip) was 33.5 days and the “Average Weight Change” value (B16 Melanoma [3]; 8 mg/kg/day ip) was -2.1 g. For the same molecule, the “Effect MST % T/C” value (B16 Melanoma [3]; 8 mg/kg/day ip) was 190 % T/C, the “MST Days” value (B16 Melanoma [3]; 8 mg/kg/day ip) was 39.0 days and the “Average Weight Change” value (B16 Melanoma [3]; 16 mg/kg/day ip) was -2.3 g. The “Effect MST % T/C” value (B16 Melanoma [3]; 16 mg/kg/day ip) was >293^a % T/C, the “MST Days” value (B16 Melanoma [3]; 16 mg/kg/day ip) was >60.0^a Days and the “Effect MST % T/C” value (B16 Melanoma [4]; 2 mg/kg/day ip) was 133 % T/C. The “MST Days” value (B16 Melanoma [4]; 2 mg/kg/day ip) was 26.0 days, the “Effect MST % T/C” value (B16 Melanoma [4]; 4 mg/kg/day ip) was 187 % T/C and the “MST Days” value (B16 Melanoma [4]; 4 mg/kg/day ip) was 36.5 days. For the same molecule, the “Effect MST % T/C” value (B16 Melanoma [4]; 8 mg/kg/day ip) was 177 % T/C, the “MST Days” value (B16 Melanoma [4]; 8 mg/kg/day ip) was 34.5 days and the “Effect MST % T/C” value (B16 Melanoma [4]; 16 mg/kg/day ip) was >308* % T/C. For the same molecule, the “MST Days” value (B16 Melanoma [4]; 16 mg/kg/day ip) was >60.0* Days, the “Effect MST % T/C” value (B16 Melanoma [4]; 24 mg/kg/day ip) was 54 % T/C and the “MST Days” value (B16 Melanoma [4]; 24 mg/kg/day ip) was 10.5 days. For the same molecule, the “Effect MST % T/C” value (B16 Melanoma [4]; 32 mg/kg/day ip) was 38 % T/C, the “MST Days” value (B16 Melanoma [4]; 32 mg/kg/day ip) was 7.5 days and the “maximum T/C” value (B16 Melanoma [4]; ip B16, ip QD 1→9) was > 308%. For the same molecule, the “Effect MST % T/C” value (L1210 Leukemia [5]; 40 mg/kg ip) was 114 % T/C, the “MST Days” value (L1210 Leukemia [5]; 40 mg/kg ip) was 8.0 days and the “Effect MST % T/C” value (L1210 Leukemia [5]; 60 mg/kg ip) was 143 % T/C. The “MST Days” value (L1210 Leukemia [5]; 60 mg/kg ip) was 10.0 days, the “Effect MST % T/C” value (L1210 Leukemia [5]; 80 mg/kg ip) was 129 % T/C and the “MST Days” value (L1210 Leukemia [5]; 80 mg/kg ip) was 9.0 days. For the same molecule, the “Effect MST % T/C” value (L1210 Leukemia [5]; 100 mg/kg ip) was 100 % T/C, the “MST Days” value (L1210 Leukemia [5]; 100 mg/kg ip) was 7.0 days and the “Effect MST %TC” value (Lewis Lung Carcinoma; 8 mg/kg/inj ip, qd 5→13) was 112 %TC. For the same molecule, the “MST Days” value (Lewis Lung Carcinoma; 8 mg/kg/inj ip, qd 5→13) was 14.0 days, the “Effect MST %TC” value (Lewis Lung Carcinoma; 12 mg/kg/inj ip, qd 5→13) was 168 %TC and the “MST Days” value (Lewis Lung Carcinoma; 12 mg/kg/inj ip, qd 5→13) was 21.0 days. For the same molecule, the “Effect MST %TC” value (Lewis Lung Carcinoma; 16 mg/kg/inj ip, qd 5→13) was 176 %TC, the “MST Days” value (Lewis Lung Carcinoma; 16 mg/kg/inj ip, qd 5→13) was 22.0 days and the “Effect MST %TC” value (Lewis Lung Carcinoma; 20 mg/kg/inj ip, d. 5,9&13) was 100 %TC. For the same molecule, the “MST Days” value (Lewis Lung Carcinoma; 20 mg/kg/inj ip, d. 5,9&13) was 12.5 days, the “Effect MST %TC” value (Lewis Lung Carcinoma; 24 mg/kg/inj ip, qd 5→13) was 220 %TC and the “MST Days” value (Lewis Lung Carcinoma; 24 mg/kg/inj ip, qd 5→13) was 27.5 days. For the same molecule, the “Effect MST %TC” value (Lewis Lung Carcinoma; 40 mg/kg/inj ip, d. 5,9&13) was 120 %TC, the “MST Days” value (Lewis Lung Carcinoma; 40 mg/kg/inj ip, d. 5,9&13) was 15.0 days and the “Effect MST %TC” value (Lewis Lung Carcinoma; 60 mg/kg/inj ip, d. 5,9&13) was 156 %TC. For the same molecule, the “MST Days” value (Lewis Lung Carcinoma; 60 mg/kg/inj ip, d. 5,9&13) was 19.5 days, the “Effect MST %TC” value (Lewis Lung Carcinoma; 80 mg/kg/inj ip, d. 5,9&13) was 152 %TC and the “MST Days” value (Lewis Lung Carcinoma; 80 mg/kg/inj ip, d. 5,9&13) was 19.0 days. For the same molecule, the “Survivors Day 9(48)” value (Lewis Lung Carcinoma; Day 48 (figure in parentheses), 60 mg/kg/inj ip, d. 5,9&13) was 1, the “maximum T/C” value (Lewis Lung Carcinoma; given ip, therapy from day 5) was 220% and the “Survivors Day 9(48)” value (Lewis Lung Carcinoma; mouse, in vivo, ip, 8 mg/kg) was 6/6. The “Survivors Day 9(48)” value (Lewis Lung Carcinoma; mouse, in vivo, ip, 12 mg/kg) was 6/6, the “Survivors Day 9(48)” value (Lewis Lung Carcinoma; mouse, in vivo, ip, 16 mg/kg) was 6/6 and the “Survivors Day 9(48)” value (Lewis Lung Carcinoma; mouse, in vivo, ip, 20 mg/kg) was 6/6. For the same molecule, the “Survivors Day 9(48)” value (Lewis Lung Carcinoma; mouse, in vivo, ip, 24 mg/kg) was 6/6, the “Survivors Day 9(48)” value (Lewis Lung Carcinoma; mouse, in vivo, ip, 40 mg/kg) was 6/6 and the “Survivors Day 9(48)” value (Lewis Lung Carcinoma; mouse, in vivo, ip, 60 mg/kg) was 6/6. For the same molecule, the “Survivors Day 9(48)” value (Lewis Lung Carcinoma; mouse, in vivo, ip, 80 mg/kg) was 6/6.
